The source of these data is paper PMC5769128, “Human UDP-Glucuronosyltransferase 2B4 and 2B7 Are Responsible for Naftopidil Glucuronidation in Vitro” (Frontiers in Pharmacology, 2018).

The conditions of data set [1]: rat, ref Himmel, 1994, cited from earlier work.
For data set [2], the system named is animals. Also noted: method as in Himmel, 1994. The settings on record: 100 mg/day, ref Himmel, 1994; cited from earlier work.
The conditions of data set [3]: human, ref Himmel, 1994, cited from earlier work.
For data set [4] the following is noted: human, after oral treatment; no reference given; cited from earlier work.
Data set [5] deals with UGT2B4/UGT2B7 (NAF glucuronidation). Description: Inhibition of the glucuronidation of NAF enantiomers by specific UGT inhibitors in pooled HLM. The settings on record: human, pooled human liver microsomes, pH 7.5, probe R(+)-NAF 50 μM, S(-)-NAF 20 μM. A general note: Microsomes from liver hold many membrane-bound enzymes, among them those of drug oxidation.
Data set [6] deals with NAF glucuronidation in pooled HLM (UGT2B4/UGT2B7, UGT1A9). The description is as above. The settings on record: inhibitor 5, 50 μM; pooled HLM.
For data set [7], the target named is T1, recombinant human UGT1A9 (Homo sapiens, UniProt O60656).
T1 construct: purchased BD Gentest
T1 sequence (O60656 26-530): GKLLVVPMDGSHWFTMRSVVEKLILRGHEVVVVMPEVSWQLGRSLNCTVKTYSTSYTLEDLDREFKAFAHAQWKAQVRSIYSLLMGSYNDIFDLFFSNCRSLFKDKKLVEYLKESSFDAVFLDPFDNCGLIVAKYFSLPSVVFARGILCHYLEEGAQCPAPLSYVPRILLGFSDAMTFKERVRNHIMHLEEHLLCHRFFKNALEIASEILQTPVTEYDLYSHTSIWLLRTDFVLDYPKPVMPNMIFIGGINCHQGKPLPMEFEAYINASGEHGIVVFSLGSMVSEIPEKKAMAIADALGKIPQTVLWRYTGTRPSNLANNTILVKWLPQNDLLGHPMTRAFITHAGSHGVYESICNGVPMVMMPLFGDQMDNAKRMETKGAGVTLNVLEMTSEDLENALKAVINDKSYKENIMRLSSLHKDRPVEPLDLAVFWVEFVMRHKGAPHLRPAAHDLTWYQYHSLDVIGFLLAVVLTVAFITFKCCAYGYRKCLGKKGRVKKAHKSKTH
Description: Kinetics of NAF enantiomer glucuronidation by recombinant UGT1A9. Format: in vitro ADME. How it is done:
(§1) All glucuronidation assays were conducted in an incubation volume of 200 μL. Incubations were performed at 37°C in 50 mM Tris–HCl buffer (pH 7.5) with 10 mM magnesium chloride, 1 mg protein/mL of enzyme (microsomes and recombinant human UGTs), alamethicin (100 μg of alamethicin/mg microsomal protein), and NAF enantiomers (2.5–80 μM). The reaction was initiated by the addition of UDPGA (5 mM) and incubated at 37°C in a shaking water bath for 45 min. The reaction was terminated by the addition of 200 μL of ice-cold acetonitrile containing the IS (1 μM) and then centrifuged at 5000 ×g for 10 min at 4°C. The supernatant fraction was injected into the RRLC-MS/MS apparatus. Protein concentration (0.5–2 mg/mL) and incubation time (15–180 min) were optimized in preliminary studies to be within initial linear rate conditions.
(§2) Kinetic parameters were assessed in the HLM, RLM, HKM, RKM, and recombinant human UGTs (UGT2B4, 2B7, and 1A9).

Data set [8] addresses T2, UGT2B7 (Homo sapiens, UniProt P16662).
T2 sequence (P16662 24-529): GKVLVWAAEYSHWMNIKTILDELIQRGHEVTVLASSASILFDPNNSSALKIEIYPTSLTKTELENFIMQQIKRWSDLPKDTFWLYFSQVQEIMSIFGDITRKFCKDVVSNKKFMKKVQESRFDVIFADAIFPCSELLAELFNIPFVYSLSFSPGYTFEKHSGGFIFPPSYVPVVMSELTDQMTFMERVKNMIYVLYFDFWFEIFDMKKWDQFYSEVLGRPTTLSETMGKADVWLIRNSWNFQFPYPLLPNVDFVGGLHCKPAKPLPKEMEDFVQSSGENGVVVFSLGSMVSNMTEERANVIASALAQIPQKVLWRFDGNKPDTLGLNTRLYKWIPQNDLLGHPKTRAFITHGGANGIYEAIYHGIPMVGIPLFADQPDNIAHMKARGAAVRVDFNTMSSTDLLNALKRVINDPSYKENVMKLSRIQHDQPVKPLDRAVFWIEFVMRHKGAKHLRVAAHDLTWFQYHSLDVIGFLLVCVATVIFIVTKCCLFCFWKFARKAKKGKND
Description: Kinetics of NAF enantiomer glucuronidation by recombinant UGT2B7. Type of data set: in vitro ADME. Also noted: purchased BD Gentest. Here is the method:
as §1, §2

For data set [9], the system named is human kidney microsomes (HKM). Description: Kinetics of NAF enantiomer glucuronidation by human kidney microsomes. Type of data set: in vitro ADME. How it is done:
as §1, §2

On the set-up of data set [10]: method as in Liu et al., 2017. The settings on record: rat plasma; ref Liu et al., 2017; cited from earlier work.
For data set [11], the target named is T3, recombinant human UGT2B4 (Homo sapiens, UniProt P06133).
T3 construct: purchased BD Gentest
T3 sequence (P06133 24-528): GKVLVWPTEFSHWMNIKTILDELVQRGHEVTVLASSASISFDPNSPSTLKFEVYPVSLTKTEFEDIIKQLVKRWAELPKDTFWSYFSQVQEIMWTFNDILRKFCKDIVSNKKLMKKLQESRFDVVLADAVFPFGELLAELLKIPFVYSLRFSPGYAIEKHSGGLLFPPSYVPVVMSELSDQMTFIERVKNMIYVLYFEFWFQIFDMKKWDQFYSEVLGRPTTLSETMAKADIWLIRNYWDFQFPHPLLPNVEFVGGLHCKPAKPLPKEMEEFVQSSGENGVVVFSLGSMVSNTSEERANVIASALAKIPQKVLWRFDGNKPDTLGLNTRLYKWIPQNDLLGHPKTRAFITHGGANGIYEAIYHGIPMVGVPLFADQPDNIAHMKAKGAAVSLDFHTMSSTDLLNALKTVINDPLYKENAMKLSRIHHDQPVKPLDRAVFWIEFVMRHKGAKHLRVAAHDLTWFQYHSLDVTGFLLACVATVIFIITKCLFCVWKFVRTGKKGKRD
Description: Kinetics of NAF enantiomer glucuronidation by recombinant UGT2B4. Format: in vitro ADME. How it is done:
as §1, §2

In data set [12] the test system is human liver microsomes (HLM). Description: Kinetics of NAF enantiomer glucuronidation by human liver microsomes. Type of data set: in vitro ADME. Here is the method: as §1, §2
Substrate in data set [13]: COc1ccccc1N1CCN(C[C@@H](O)COc2cccc3ccccc23)CC1
Description: cells, lysate or membranes named. The settings on record: pH 7.5, 37.0 °C.

Substrate in data set [14]: COc1ccccc1N1CCN(C[C@H](O)COc2cccc3ccccc23)CC1
Description: cells, lysate or membranes named. The settings on record: pH 7.5, 37.0 °C.

Where [15] appears, read: other: NAF glucuronidation by UGT2B7.
The mark [16] stands for this setting: other: NAF glucuronidation by UGT2B4.

Like-named read-outs stand apart in the source and are kept apart here.

For the molecule `COc1ccccc1N1CCN(CC(O)COc2cccc3ccccc23)CC1` (stereo not shown) [NAF, Naftopidil], the bioavailability (commonly the share of a dose that reaches the circulation, judged against a reference dose that is usually intravenous) was 6.8–14.5% in [1] (Liu et al., 2015, 2017); 9% in data set [1]; under 20% in data set [3] (Liu et al., 2015, 2017); 20% in [3]. Moreover, the “adverse findings at high doses” value in data set [2] was “reduced food consumption and body weight gain, apathy, diarrhea, proteinuria, and slightly increased levels of alkaline phosphatase”. In [4], the plasma levels is under 10 µM.
Regarding `OC(Cn1cncn1)(Cn1cncn1)c1ccc(F)cc1F` [Fluconazole, fluconazole], in [5], the inhibition (commonly the drop in the measured response relative to a control, in per cent) at 45 min, 0.25 mM was about 35% and the inhibition at 45 min, 2.5 mM is about 55%.
For the molecule `O=C(O)c1cccnc1Nc1cccc(C(F)(F)F)c1` [niflumic acid], the “Inhibition of NAF glucuronidation” value in data set [6] is given as “could not inhibit NAF glucuronidation”.
Take `COc1ccccc1N1CCN(CC(COc2cccc3ccccc23)OC2OC(C(=O)O)C(O)C(O)C2O)CC1` (stereo not drawn) [S(-)-NAF-G]: the Kinetics type entry in [7] is listed as “Michaelis–Menten”; in data set [8] it was “Substrate inhibition”; in data set [9], “Substrate inhibition”; in [11], “Substrate inhibition”; in [12], “Michaelis–Menten”. Besides, the Vmax (commonly the top rate of the reaction or transport when substrate is in excess) is 6.0 ± 2.2 pmol/min/mg in data set [7]; 1331 ± 298 pmol/min/mg in data set [8]; 1957 ± 100 pmol/min/mg in data set [9]; 1976 ± 158 pmol/min/mg in data set [11]; 3472 ± 129 pmol/min/mg in data set [12]. Further, the “level of glucuronide relative to parent enantiomer” value in data set [10] is reported as “threefold”.
`COc1ccccc1N1CCN(CC(COc2cccc3ccccc23)OC2OC(C(=O)O)C(O)C(O)C2O)CC1` (stereo not drawn) [R(+)-NAF-G]: the Kinetics type result was “Substrate inhibition” in data set [7]; “Substrate inhibition” in [8]; “Michaelis–Menten” in data set [9]; “Substrate inhibition” in data set [11]; “Michaelis–Menten” in data set [12]. The Vmax turned out to be 34 ± 2 pmol/min/mg in data set [7]; 1043 ± 152 pmol/min/mg in data set [8]; 2786 ± 138 pmol/min/mg in data set [9]; 264 ± 38 pmol/min/mg in data set [11]; 3330 ± 131 pmol/min/mg in [12]. For the same molecule, the “level of glucuronide relative to parent enantiomer” value in data set [10] is given as “six”.

B1: recombinant human UGT2B7 (Homo sapiens) (protein)
chain: GKVLVWAAEYSHWMNIKTILDELIQRGHEVTVLASSASILFDPNNSSALKIEIYPTSLTKTELENFIMQQIKRWSDLPKDTFWLYFSQVQEIMSIFGDITRKFCKDVVSNKKFMKKVQESRFDVIFADAIFPCSELLAELFNIPFVYSLSFSPGYTFEKHSGGFIFPPSYVPVVMSELTDQMTFMERVKNMIYVLYFDFWFEIFDMKKWDQFYSEVLGRPTTLSETMGKADVWLIRNSWNFQFPYPLLPNVDFVGGLHCKPAKPLPKEMEDFVQSSGENGVVVFSLGSMVSNMTEERANVIASALAQIPQKVLWRFDGNKPDTLGLNTRLYKWIPQNDLLGHPKTRAFITHGGANGIYEAIYHGIPMVGIPLFADQPDNIAHMKARGAAVRVDFNTMSSTDLLNALKRVINDPSYKENVMKLSRIQHDQPVKPLDRAVFWIEFVMRHKGAKHLRVAAHDLTWFQYHSLDVIGFLLVCVATVIFIVTKCCLFCFWKFARKAKKGKND
Take B1: in [13] (setting [15]), the Km (as a rule, the concentration of substrate that gives half-maximal velocity) was 21 µM; the Vmax is given as 1043 pmol/min/mg; the Vmax/Km was 50 µL/min/mg. Further, in data set [14] (setting [15]), the Km was 38 µM and the Vmax stood at 1331 pmol/min/mg.

B2: recombinant human UGT2B4 (Homo sapiens) (protein)
chain: GKVLVWPTEFSHWMNIKTILDELVQRGHEVTVLASSASISFDPNSPSTLKFEVYPVSLTKTEFEDIIKQLVKRWAELPKDTFWSYFSQVQEIMWTFNDILRKFCKDIVSNKKLMKKLQESRFDVVLADAVFPFGELLAELLKIPFVYSLRFSPGYAIEKHSGGLLFPPSYVPVVMSELSDQMTFIERVKNMIYVLYFEFWFQIFDMKKWDQFYSEVLGRPTTLSETMAKADIWLIRNYWDFQFPHPLLPNVEFVGGLHCKPAKPLPKEMEEFVQSSGENGVVVFSLGSMVSNTSEERANVIASALAKIPQKVLWRFDGNKPDTLGLNTRLYKWIPQNDLLGHPKTRAFITHGGANGIYEAIYHGIPMVGVPLFADQPDNIAHMKAKGAAVSLDFHTMSSTDLLNALKTVINDPLYKENAMKLSRIHHDQPVKPLDRAVFWIEFVMRHKGAKHLRVAAHDLTWFQYHSLDVTGFLLACVATVIFIITKCLFCVWKFVRTGKKGKRD
As for B2, in data set [13] (setting [16]), the Km stood at 51 µM and the Vmax/Km came out at 5.2 µL/min/mg. Further, in data set [14] (setting [16]), the Michaelis-Menten constant (Km) is 55 µM and the Vmax stood at 1976 pmol/min/mg.
